Entries after “also recorded” stand apart in the source; their conditions may differ.
Columns and labels:
[1] = test system: REH cells; experiment: MTT cytotoxicity assay, REH cell line; format: cell-based, human; conditions: 48 h of treatment
Method: (§1) All compounds were resuspended in DMSO at stock concentration of 20 mM and stored at −20° C. For cytotoxicity testing, the dilutions from the stock solutions were made in culture medium (RPMI-1640 plus 10% of fetal bovine serum, 100 IU/ml penicillin and 100 µg/mL Streptomycin), immediately before being discharged to the cells.
(§2) The REH and Jurkat cell lines were maintained in
(§3) RPMI-1640 medium with 10% FBS (fetal bovine serum), 100 IU/mL penicillin, 100 µg/mL streptomycin and incubated at 37° C. and 5% CO2. Cytotoxicity assays were performed according to the method described in the literature (Pieters, R.; et al. In vitro drug sensitivity of cells from children with leukemia using the MTT assay with improved culture conditions. Blood, 1990, 76, 2327-2336; Pieters, R.; et al. Relation of cellular drug resistance to long-term clinical outcome in childhood acute lymphoblastic leukaemia. Lancet, 1991, 338, 399-403 e Kaspers, G. J.; et al. In vitro cellular drug resistance and prognosis in newly diagnosed childhood acute lymphoblastic leukemia. Blood, 1997, 90, 2723). Cells were resuspended at a concentration of 3.75 10^5 cells/mL in culture medium as described. Eighty microliters of this suspension were seeded into plates with 96 round-bottom wells, containing 20 microliters of different concentrations of compound or vehicle alone. Each treatment was done in triplicate. After 48 hours of incubation at 37° C. and 5% CO2, 20 μL of MTT solution was added (5 mg/mL of 1x PBS), followed by further incubation for 4 hours and 30 minutes at 37° C. and 5% CO2. During these 4 hours and 30 minutes, MTT (yellowish) is metabolized to formazan salt (bluish in color) by living cells. After this, 100 μL sodium dodecyl sulphate (SDS) 10%+0.1M of HCl were added to dissolve the formazan crystals. After incubating overnight, absorbance reading at 570 nm was carried out. The percentage of cells surviving the treatment were calculated relative to the number of surviving cells in the medium without addition of the compounds in question (“negative control”).
(§4) c) Determination of IC: IC50 is defined as the concentration of a compound at which 50% of maximal inhibition is obtained. After reading the absorbance, survival curves were constructed and the values of IC50 were obtained with the GraphPad Prism software.

[2] = test system: Jurkat cells; experiment: MTT cytotoxicity assay, Jurkat cell line; format: cell-based, human; conditions: 48 h of treatment, read-out: IC50 T (Jurkat)
Method: as §1, §2, §3, §4

[3] = test system: human leukemic Jurkat cells and HEK; experiment: Screening of compounds by cell viability assay (MTT) in leukemic cells; format: cell-based; conditions: leukemic cells of Jurkat and HEK strains
Method: RPMI-1640 medium with 10% FBS (fetal bovine serum), 100 IU/mL penicillin, 100 µg/mL streptomycin and incubated at 37° C. and 5% CO2. Cytotoxicity assays were performed according to the method described in the literature (Pieters, R.; et al. In vitro drug sensitivity of cells from children with leukemia using the MTT assay with improved culture conditions. Blood, 1990, 76, 2327-2336; Pieters, R.; et al. Relation of cellular drug resistance to long-term clinical outcome in childhood acute lymphoblastic leukaemia. Lancet, 1991, 338, 399-403 e Kaspers, G. J.; et al. In vitro cellular drug resistance and prognosis in newly diagnosed childhood acute lymphoblastic leukemia. Blood, 1997, 90, 2723). Cells were resuspended at a concentration of 3.75 10^5 cells/mL in culture medium as described. Eighty microliters of this suspension were seeded into plates with 96 round-bottom wells, containing 20 microliters of different concentrations of compound or vehicle alone. Each treatment was done in triplicate. […] After incubating overnight, absorbance reading at 570 nm was carried out. The percentage of cells surviving the treatment were calculated relative to the number of surviving cells in the medium without addition of the compounds in question (“negative control”). […]

[4] = test system: healthy and phytohemagglutinin-stimulated lymphocytes; experiment: MTT assay on normal lymphocytes stimulated with phytohemagglutinin; format: cell-based, human; conditions: for Percentage of survival: 48 h, MTT
Method: for the test of compound 07 against normal lymphocytes, blood from human donors was separated in a ficoll gradient and the mononuclear cells were cultivated at 200,000 cells/well, in 80 microliters of RPMI-1640 (containing 10% FBS, 100 IU/mL penicillin and 100 μg/mL streptomycin) and 20 microliters of phytohemagglutinin solution (Cultilab) in each well for stimulation of T lymphocytes. Compound 07 was added in serial dilutions (50%) from 300 to 1 nm. As a control, parallel tests were run with cells from leukemic Jurkat and REH cell lines, and experiments with colchicine with the same concentrations as compound 07. Cytotoxicity was assessed after 48 hours by the MTT method, as described Above.

[5] = test system: Jurkat cells; experiment: Cell cycle analysis, propidium iodide flow cytometry; format: cell-based, human; conditions: 125 nM, 18 h
Method: The cells were incubated for 12 hours in fresh medium before experiments. Two million cells from the Jurkat line were incubated for 12 h, 18 h, 24 h and 30 h in RPMI-640 medium supplemented with 10% Fetal Bovine Serum (FCS) and 0.2% Penicillin/Streptomycin (PS) with a concentration of 125 nM of compound 07 or DMSO (vehicle).
The cells treated or not with compound 07 were fixed in 70% ethanol for 2 hours, washed in PBS and incubated for 15 min at 37° C. in 1 mL of Triton X-100 0.1% 0.2 mg/mL of RNAse and 20 μg/mL propidium iodide in PBS. 20,000 events were collected on FACSCalibur flow cytometer with red fluorescence quantification, excluding any cell aggregates by the standard width vs. red fluorescence peak area. The data deconvolution to obtain the percentage of cells in each phase of cell cycle was performed using ModFit software v2.0.

[6] = molecular target: Trypanosoma cruzi cruzain (Trypanosoma cruzi, UniProt P25779); conditions: cited from earlier work
Sequence of Trypanosoma cruzi cruzain (P25779 123-467): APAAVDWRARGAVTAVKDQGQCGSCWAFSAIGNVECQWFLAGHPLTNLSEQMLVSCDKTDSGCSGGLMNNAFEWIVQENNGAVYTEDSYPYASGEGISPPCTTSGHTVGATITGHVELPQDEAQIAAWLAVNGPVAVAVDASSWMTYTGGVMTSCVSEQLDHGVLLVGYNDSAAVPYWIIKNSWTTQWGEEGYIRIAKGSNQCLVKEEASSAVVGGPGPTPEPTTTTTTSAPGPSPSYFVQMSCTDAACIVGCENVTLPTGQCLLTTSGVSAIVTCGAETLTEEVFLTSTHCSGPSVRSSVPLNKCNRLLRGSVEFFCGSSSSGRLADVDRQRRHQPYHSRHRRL

SMILES: COc1cc(C(=O)NN=Cc2cccc3ccccc23)cc(OC)c1OC [Compound 07]
- IC50 [1]: 25.4 nM
- IC50 [2]: 15.7 nM
- antileukemic activity [3]: excellent antileukemic activity; also recorded: significant antileukemic activity
- effect on normal lymphocytes induced by phytohemagglutinin [4]: do not appear to affect normal lymphocytes
- selectivity for leukemic cells compared to healthy human lymphocytes [4]: ~10 times
- Percentage of survival ([4]; 4.6 nM): 103%
- Percentage of survival ([4]; 9.38 nM): 105%
- Percentage of survival ([4]; 18.75 nM): 105%
- Percentage of survival ([4]; 37.5 nM): 101%
- Percentage of survival ([4]; 75 nM): 108%
- Percentage of survival ([4]; 150 nM): 107%
- Percentage of survival ([4]; 300 nM): 95%
- effect on cell cycle [5]: cell cycle arrest in G2/M
- inhibitory activity of cruzain [6]: did not show inhibitory activity

— patent publication US20150191445A1, “ACYL-HYDRAZONE AND OXADIAZOLE COMPOUNDS, PHARMACEUTICAL COMPOSITIONS CONTAINING THE SAME AND USES THEREOF” (Universidade Federal de Santa Catarina, priority 2011, published 2015)
